Species: Rattus norvegicus
Assay: Open TG-GATES - Regimen: Daily Repeat
Type: toxicity, organism-based, Sprague-Dawley
Parameters: regimen Daily Repeat, gender Male, age 6 weeks
Settings: in vivo, po, 300 mg/kg, route gavage, dose level High; for Bas / Eos / Fbg / Hb / Ht / Lym / MCH / MCV / Mono / Neu / PT / Plat / RBC / Ret / WBC / APTT: tissue Blood; for KIDNEY_L / KIDNEY_R / KIDNEY_TOTAL: tissue Kidney; for LIVER: tissue Liver; for ALP / ALT / AST / BUN / CRE / Ca / Cl / DBIL / GLC / IP / K / LDH / Na / PL / RALB / TBIL / TC / TP / gamma-GTP: tissue Plasma

## NC(=O)N1c2ccccc2C=Cc2ccccc21 [CARBAMAZEPINE]
72 h, time 3 day
  Bas: 0%
  Eos: 1.2%
  Fbg: 203 mg/dL
  Hb: 13.7 g/dL
  Ht: 40.1%
  Lym: 83.6%
  MCH: 20.9 pg
  MCV: 61 fL
  Mono: 2.6%
  Neu: 11.4%
  PT: 11.8 s
  Plat: 131.3 x10_4/uL
  RBC: 657.8 x10_4/ul
  Ret: 3.6%
  WBC: 92.4 x10_2/uL
  KIDNEY_L: 1.1 g
  KIDNEY_R: 1 g
  KIDNEY_TOTAL: 2.1 g
  LIVER: 13.1 g
  ALP: 978.4 IU/L
  ALT: 40.2 IU/L
  AST: 57.2 IU/L
  BUN: 14 mg/dL
  CRE: 0.4 mg/dL
  Ca: 10.9 mg/dL
  Cl: 103.2 meq/L
  DBIL: 0.08 mg/dL
  GLC: 199.4 mg/dL
  IP: 6.8 mg/dL
  K: 3.4 meq/L
  LDH: 217.4 IU/L
  Na: 140.6 meq/L
  PL: 150.4 mg/dL
  RALB: 3.4 g/dL
  TBIL: 0.1 mg/dL
  TC: 79.2 mg/dL
  TP: 5.6 g/dL
  gamma-GTP: 1.2 IU/L
[…], time 7 day
  TERMINAL_BW: 253.9 g
  APTT: 21.5 s
  Bas: 0%
  Eos: 0.6%
  Fbg: 224.6 mg/dL
  Hb: 13.1 g/dL
  Ht: 38.8%
  Lym: 79.8%
  MCH: 20.5 pg
  MCV: 60.5 fL
  Mono: 2.4%
  Neu: 15.8%
  PT: 11.9 s
  Plat: 130.9 x10_4/uL
  RBC: 641.2 x10_4/ul
  Ret: 4.1%
  WBC: 127.4 x10_2/uL
  KIDNEY_L: 1.2 g
  KIDNEY_R: 1.1 g
  KIDNEY_TOTAL: 2.3 g
  LIVER: 14.2 g
  ALP: 803.4 IU/L
  ALT: 41.6 IU/L
  AST: 64.8 IU/L
  BUN: 15.4 mg/dL
  CRE: 0.4 mg/dL
  Ca: 10.7 mg/dL
  Cl: 101.8 meq/L
  DBIL: 0.098 mg/dL
  GLC: 212.6 mg/dL
  IP: 7 mg/dL
  K: 3.9 meq/L
  LDH: 261.2 IU/L
  Na: 139.6 meq/L
  PL: 174.4 mg/dL
  RALB: 3.6 g/dL
  TBIL: 0.1 mg/dL
  TC: 91.2 mg/dL
  TP: 6.1 g/dL
  gamma-GTP: 1.4 IU/L
[…], time 14 day
  TERMINAL_BW: 309.3 g
  APTT: 22.3 s
  Bas: 0%
  Eos: 0.4%
  Fbg: 209.2 mg/dL
  Hb: 14.2 g/dL
  Ht: 41.2%
  Lym: 82.2%
  MCH: 20.6 pg
  MCV: 59.8 fL
  Mono: 2.4%
  Neu: 13.6%
  PT: 12.2 s
  Plat: 128.7 x10_4/uL
  RBC: 689.4 x10_4/ul
  Ret: 4.7%
  WBC: 149.2 x10_2/uL
  KIDNEY_L: 1.3 g
  KIDNEY_R: 1.3 g
  KIDNEY_TOTAL: 2.7 g
  LIVER: 17.8 g
  ALP: 774.4 IU/L
  ALT: 38.6 IU/L
  AST: 62.8 IU/L
  BUN: 17.5 mg/dL
  CRE: 0.5 mg/dL
  Ca: 11 mg/dL
  Cl: 101 meq/L
  DBIL: 0.1 mg/dL
  GLC: 193.4 mg/dL
  IP: 7.2 mg/dL
  K: 3.9 meq/L
  LDH: 192 IU/L
  Na: 140.8 meq/L
  PL: 170.4 mg/dL
  RALB: 3.5 g/dL
  TBIL: 0.2 mg/dL
  TC: 89 mg/dL
  TP: 6.4 g/dL
  gamma-GTP: 0.6 IU/L
[…], time 28 day
  TERMINAL_BW: 374.6 g
  APTT: 22.9 s
  Bas: 0%
  Eos: 1%
  Fbg: 225.4 mg/dL
  Hb: 15.2 g/dL
  Ht: 43.4%
  Lym: 87.2%
  MCH: 19.6 pg
  MCV: 56 fL
  Mono: 2.2%
  Neu: 8.8%
  PT: 12.2 s
  Plat: 106.2 x10_4/uL
  RBC: 776.2 x10_4/ul
  Ret: 2.1%
  WBC: 142.7 x10_2/uL
  KIDNEY_L: 1.4 g
  KIDNEY_R: 1.4 g
  KIDNEY_TOTAL: 2.8 g
  LIVER: 19.5 g
  ALP: 555 IU/L
  ALT: 39.8 IU/L
  AST: 55 IU/L
  BUN: 20.4 mg/dL
  CRE: 0.5 mg/dL
  Ca: 10.6 mg/dL
  Cl: 101.4 meq/L
  DBIL: 0.09 mg/dL
  GLC: 226 mg/dL
  IP: 6.4 mg/dL
  K: 3.6 meq/L
  LDH: 218.2 IU/L
  Na: 140.6 meq/L
  PL: 180.8 mg/dL
  RALB: 3.7 g/dL
  TBIL: 0.1 mg/dL
  TC: 93.8 mg/dL
  TP: 6.5 g/dL
  gamma-GTP: 1.2 IU/L
